Legend:
[1] = Apparent permeability across apical to basolateral side in MDCKII-MDR1 cells at 10 uM by LC-MS/MS analysis; assay type: ADME, cell-based, Canis lupus familiaris; details: dog, MDCK-MDR1
[2] = Apparent permeability across basolateral to apical side in MDCKII-MDR1 cells at 10 uM by LC-MS/MS analysis; assay type: ADME, cell-based, Canis lupus familiaris; details: dog, MDCK-MDR1
[3] = Efflux ratio of apparent permeability from basolateral to apical side over apical to basolateral side in […] cells at 10 uM by LC-MS/MS analysis; assay type: ADME, cell-based, Canis lupus familiaris; details: dog, MDCK-MDR1
Alpha-synuclein = Alpha-synuclein (Homo sapiens, UniProt P37840); test: Inhibition of recombinant human Alpha-synuclein aggregation expressed in Escherichia coli incubated for 72 hrs by ThT fluorescence assay

Which Papp A→B at 10 µM [1] does the source give for `CC(C)NCC(O)COc1cccc2ccccc12` (configuration not stated) [PROPRANOLOL] here?
Its Papp A→B at 10 µM is 36.5 ×10⁻⁶ cm/s.

And the Papp B→A at 10 µM [2]?
Its Papp B→A at 10 µM is 97 ×10⁻⁶ cm/s.

What about the efflux ratio at 10 µM [3] of the same molecule?
The efflux ratio at 10 µM was 2.66.

Which results are given for `COc1cc(/C=C/C(=O)c2cc(O)cc(O)c2)c(OC)cc1/C=C/C(=O)c1cc(O)cc(O)c1`?
Papp A→B at 10 µM [1]: 7.71 ×10⁻⁶ cm/s; Papp B→A at 10 µM [2]: 93.2 ×10⁻⁶ cm/s

With `O=C(/C=C/c1ccc(/C=C/C(=O)c2ccc(O)c(F)c2)cc1)c1ccc(O)c(F)c1` as the molecule, how does the Papp A→B at 10 µM [1] read?
Its Papp A→B at 10 µM is 11.4 ×10⁻⁶ cm/s.

What about the Papp B→A at 10 µM [2] of the same molecule?
The Papp B→A at 10 µM was 95.6 ×10⁻⁶ cm/s.

With `O=C(O[C@@H]1Cc2c(O)cc(O)cc2O[C@H]1c1cc(O)c(O)c(O)c1)c1cc(O)c(O)c(O)c1` [GALLOCATECHIN GALLATE] as the molecule, how does the IC50 (Alpha-synuclein) read?
Its IC50 is 1060 nM.

For `COc1cc(/C=C/C(=O)c2ccc(O)c(O)c2)c(OC)cc1/C=C/C(=O)c1ccc(O)c(O)c1`, which Papp A→B at 10 µM [1] is on record?
Its Papp A→B at 10 µM is 13.5 ×10⁻⁶ cm/s.

And the Papp B→A at 10 µM [2]?
The Papp B→A at 10 µM was 96 ×10⁻⁶ cm/s.

Which Papp A→B at 10 µM [1] does the source give for `O=C(/C=C/c1ccc(/C=C/C(=O)c2ccc(O)c(O)c2)cc1)c1ccc(O)c(O)c1` here?
The Papp A→B at 10 µM was 16.2 ×10⁻⁶ cm/s.

And the Papp B→A at 10 µM [2]?
The Papp B→A at 10 µM was 74.7 ×10⁻⁶ cm/s.

From ChEMBL document CHEMBL5338708, “Bis-chalcone polyphenols with potential preventive and therapeutic effects on PD: Design, synthesis and in vitro disaggregation activity against α-synuclein oligomers and fibrils” (Eur J Med Chem, 2022)
